Results on four compounds are retold here after patent US20190183114A1, “METHODS AND COMPOSITIONS FOR THE PRESERVATIONOF ORGANS” (INSERM (Institut National de la Sante et de la Recherche …, priority 2016, published 2019).

Holding throughout (assay type): cell-based, human
The subject of assay [1] is CHOP. The assay is described as follows: RT-qPCR of CHOP mRNA in HAEC subjected to 24 h of ischemia. On the procedure:
HAEC were washed with PBS before being incubated in cold University of Wisconsin (UW) preservation solution in a chamber with hypothermic (4° C.) hypoxic atmosphere obtained by flushing the chamber atmosphere with Bactal 2 (0% O2, 95% N2 and 5% CO2) until the reach of 0% 02 in the chamber atmosphere. The oxygen level was controlled with the oximeter Oxy-4 micro from PreSens Precision Sensing GmbH with channels present in the outside atmosphere, the chamber atmosphere, and the cell supernatant. To perform the normothermic reoxygenation, cells were washed with PBS and then incubated with M200 supplemented with 2% FBS in a humidified atmosphere at 21% O2, 5% CO2 and 37° C. […]
(§1) RNA was extracted from HAEC using the NucleoSpin RNA kit (Macherey-Nagel) containing a DNase treatment to remove potentially contaminating genomic DNA. […] A quantity of 1 μg of total RNA was reverse-transcribed with High Capacity cDNA Reverse Transcription kit (ABsystems). RT-qPCR was performed in triplicate with negative template controls, negative enzyme controls and the use of a calibrator to limit inter-run variations as recommended by the MIQE guidelines (Bustin S A, Benes V, Garson J A, Hellemans J, Huggett J, Kubista M, et al. The MIQE Guidelines: Minimum Information for Publication of Quantitative Real-Time PCR Experiments. Clin. Chem. 2009; 55:611-22). […]

Assay [2] deals with HAEC. Briefly: XTT viability assay on HAEC subjected to 24 h of cold ischemia followed by 6 h of reperfusion. Conditions: for cell viability / survival after ischemia reperfusion (XTT): 24 h ischemia + 6 h reperfusion, treated during hypoxia from start (AEBSF 300 μM, Salubrinal 75 μM, STF083010 10 μM, 4μ8c 10 μM); for protection against cell death, treatment delayed by 12 h after start of cold ischemia: treatment after 12 h; for protection against cell death, treatment delayed by 12 h after start of cold ischemia / protection against cell death, treatment delayed by 6 h after start of cold ischemia: data not shown; for protection against cell death, treatment delayed by 6 h after start of cold ischemia: treatment only at 6 h. How it is done:
Primary human aortic endothelial cells (HAEC) were obtained from Gibco (Lot No: #765093 and Lot No: #999999) and cultured on 1% gelatin (Sigma) coated flasks of 75 cm^2 in M200 medium supplemented with LSGS (Gibco), 8% fetal bovine serum (FBS), and 100 μg/mL penicillin and streptomycin in a humidified atmosphere at 21% O2, 5% CO2 and 37° C. The cells were split at a ratio of 1:4 every 5 days. Cells up to passage 5 were used in this study. All cell culture media, serum, and supplements were purchased from Invitrogen. STF083010 (10 μM) and 4μ8c (10 μM) were purchased from Axon MedChem. Salubrinal (75 μM) was from R&D. Tunicamycin ([…]), sodium 4-phenylbutyrate (1 mM), and 4-(2-Aminoethyl)benzenesulfonyl fluoride (AEBSF, 300 μM) were from Sigma. All chemicals were dissolved in DMSO (Sigma). IRE1α^−/− and IRE1α^+/+—which are IRE1α^−/− cells rescued by a retrovirus encoding a Flag-tagged human IRE1α—murine embryonic cells (MEC) were produced as previously described (Volmer R, Ploeg K van der, Ron D. Membrane lipid saturation activates endoplasmic reticulum unfolded protein response transducers through their transmembrane domains. Proc. Natl. Acad. Sci. 2013; 201217611). MEC were cultured in DMEM high-glucose media (Gibco) supplemented with 10% FBS, non-essential amino acids (Gibco), penicillin and streptomycin (Gibco), L-glutamine (Gibco), and puromycin (3 μg/mL).
(§2) HAEC were washed with PBS before being incubated in cold University of Wisconsin (UW) preservation solution in a chamber with hypothermic (4° C.) hypoxic atmosphere obtained by flushing the chamber atmosphere with Bactal 2 (0% O2, 95% N2 and 5% CO2) until the reach of 0% 02 in the chamber atmosphere. The oxygen level was controlled with the oximeter Oxy-4 micro from PreSens Precision Sensing GmbH with channels present in the outside atmosphere, the chamber atmosphere, and the cell supernatant. To perform the normothermic reoxygenation, cells were washed with PBS and then incubated with M200 supplemented with 2% FBS in a humidified atmosphere at 21% O2, 5% CO2 and 37° C. The durations of both hypoxia and reoxygenation are indicated in figure legends and in the manuscript.
Reverse transfection were performed using ON-TARGETplus SMART pool siRNAs targeting IRE1α (#L-004951-02-0005), XBP1 (#L-009552-00-0005), PERK (#L-004883-00-0005), ATF4 (#L-005125-00-0005), ATF6 (#L-009917-00-0005), or ON-TARGETplus Non-targeting Pool control siRNAs (#D-001810-10-05). They were purchased from Dharmacon and used at a final concentration of 20 nM. The transfection was performed using Lipofectamine RNAiMAX and Opti-MEM reduced serum medium according to the manufacturer's instructions (Invitrogen). After 6 hours of transfection, the cell medium was replaced with fresh cell culture medium containing 10% of FBS, LSGS but no antibiotics and no antimycotics. After 24 hours of transfection, cells were subjected to hypoxia-reoxygenation experiments. For cells in 96- and 24-wells plates, cell viability was analyzed according to protocol provided (XTT cell proliferation kit II, Roche Diagnostics) while cells in 6-wells were subjected to RT-qPCR analysis to detect knockdown efficiency.

For assay [3], the system named is IRE1α's RNase activity. Briefly: XBP1s and Erdj4 expression in tunicamycin-stimulated cells. The note with it: data not shown. On the procedure: (§3) Primary human aortic endothelial cells (HAEC) were obtained from Gibco (Lot No: #765093 and Lot No: #999999) and cultured on 1% gelatin (Sigma) coated flasks of 75 cm^2 in M200 medium supplemented with LSGS (Gibco), 8% fetal bovine serum (FBS), and 100 μg/mL penicillin and streptomycin in a humidified atmosphere at 21% O2, 5% CO2 and 37° C. The cells were split at a ratio of 1:4 every 5 days. Cells up to passage 5 were used in this study. All cell culture media, serum, and supplements were purchased from Invitrogen. STF083010 (10 μM) and 4μ8c (10 μM) were purchased from Axon MedChem. […]
as §1

Assay [4] deals with ATF6. Briefly: Western blot analysis of ATF6 at different times of ischemia. The note with it: data not shown. On the procedure:
as §2
(§4) HAEC were washed in cold PBS and resuspended in complete lysis buffer (Roche Diagnostics, #04719956001) before being sonicated at output power of 2 for 3 seconds (Branson Sonifier 450). The protein concentration of cell lysate supernatants was measured by BCA protein assay (Bio-Rad, #23225). […] The bound primary antibodies were detected with ChemiDoc™ MP imager (Bio-Rad) by the use of HRP-conjugated secondary antibody and the ECL detection system (Amersham Biosciences). […]

The subject of assay [5] is IRE1α's RNase activity. Briefly: XBP1 mRNA splicing in cells subjected to 6 h ischemia. Conditions: data not shown. How it is done: as §2
We followed the method used in (Fougeray S, Bouvier N, Beaune P, Legendre C, Anglicheau D, Thervet E, et al. Metabolic stress promotes renal tubular inflammation by triggering the unfolded protein response. Cell Death Dis. 2011; 2:e143). The XBP1 cDNA encompassing the region of restriction site was amplified by PCR. […] The spliced isoform of XBP1 mRNA was resistant to Pst1 and was detected as a 448-bp amplification product whereas the unspliced isoform, containing Pst1 restriction site, was detected by the presence of two amplification products of 291-bp and 183-bp (FIG. 8A, right).

Assay [6] deals with CHOP. Briefly: RT-qPCR of CHOP mRNA in tunicamycin-treated HAEC. The note with it: 6 h tunicamycin, hydrochloride. On the procedure:
as §3, §1

Assay [7] relates to ATF6. The assay is described as follows: RT-qPCR of ATF6 downstream targets HerpUD and GRP78 in tunicamycin-treated HAEC. The note with it: 6 h tunicamycin. How it is done:
as §3, §1

The test system of assay [8] is ATF4. Briefly: ATF4 production in EC subjected to 6 h of ischemia. Conditions: data not shown. On the procedure:
as §2, §4

“Also recorded” adds a separate entry of the source.

Take `O=S(=O)(N=Cc1c(O)ccc2ccccc12)c1cccs1` [STF083010, N-[(2-Hydroxy-1-naphthalenyl)methylene]-2-thiophenesulfonamide]: the entries for the “CHOP mRNA expression” value in assay [1] and in assay [1] (listed as STF) were “decreased CHOP mRNA expression” and “significantly decreased CHOP expression to control levels”, respectively. Moreover, the “cell viability / survival after ischemia reperfusion (XTT)” value (“cell viability / survival” for short) in assay [2] is recorded as “improves viability; also recorded: increased EC survival”; in assay [2] (listed as STF) it was “significantly increased EC survival”. Moreover, the “protection against cell death, treatment delayed by 12 h after start of cold ischemia” value in assay [2] is “did not alter the protection”. Further, the “protection against cell death, treatment delayed by 6 h after start of cold ischemia” value (“protection … by 6 h after start of cold ischemia” below) in assay [2] is recorded as “did not alter the protection”. Besides, the Erdj4 expression entry in assay [3] was “abrogated”. Besides, the XBP1s expression entry in assay [3] was “abrogated”. Further, the “ATF6 expression (Western blot)” value in assay [4] (after 12 h of ischemia) is “trend towards increased ATF6 expression”; in assay [4] (at 24 h of ischemia), “no significant differences”. In assay [5], the “XBP1 mRNA splicing” value was “inhibited splicing”.
Turning to `Cl.NCCc1ccc(S(=O)(=O)F)cc1` [AEBSF, 4-(2-Aminoethyl) benzenesulfonyl fluoride hydrochloride], the “cell viability / survival” value in assay [2] (hydrochloride) was “improves viability; also recorded: protected endothelial cells against cold ischemia-induced death; also recorded: correctly protected EC against death”. In addition, in assay [2], the “protection against cell death, treatment delayed by 12 h after start of cold ischemia” value is reported as “protective effect was significantly lost” and the “protection … by 6 h after start of cold ischemia” value is “trend towards decreased protection”. The “CHOP mRNA expression” value in assay [6] is “decreases CHOP expression; also recorded: lower CHOP mRNA expression”. For the same compound, in assay [7], the “GRP78 mRNA expression” value is “decreased” and the “HerpUD mRNA expression” value is on record as “decreased”.
Take `Cc1cc(=O)oc2c(C=O)c(O)ccc12` [4μ8c]: the “cell viability / survival” value in assay [2] is “increased EC survival”.
Consider `O=C(C=Cc1ccccc1)NC(NC(=S)Nc1cccc2cccnc12)C(Cl)(Cl)Cl` (stereo not shown) [Salubrinal, 3-phenyl-N-[2,2,2-trichloro-1-[[(8-quinolinylamino)thioxomethyl]amino]ethyl]-2-propenamide], for which, in assay [2], the “cell viability / survival” value is recorded as “improves viability; also recorded: significantly increased EC survival” and the “protection … by 6 h after start of cold ischemia” value is listed as “lost”. Besides, the “cell viability / survival” value in assay [2] (listed as Salubinal) is reported as “significantly protected cells against death”. In addition, the ATF4 production entry in assay [8] is “effectively increased”.
